The results in this text go back to ChEMBL document CHEMBL1201862, “PubChem BioAssay data set” (2004).

Each structure is given as a SMILES string.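 48-hour exposure; five concentrations; linearly interpolated endpoints. The concentration for 50% growth inhibition is given as GI50.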 Calls of active or inactive are those of the source. Cut-off read from the data, not from the text of the source: active = GI50 up to about 1.1 µM and inactive = higher.

Test in all cases: NCI anticancer screen, dose series, 48 h
In test [1] the test system is A549.
Test [2] deals with CCRF-CEM.
In test [3] the test system is HL-60.
Test [4] relates to HOP-62.
Test [5] deals with IGROV-1.
For test [6], the system named is K562.
Test [7] has as its system KM12.
The test system of test [8] is MOLT-4.
Test [9] deals with NCI-H460.
Test [10] deals with OVCAR-5.
Test [11] concerns RPMI-8226.
For test [12], the system named is SF-539.
Test [13] concerns SK-MEL-28.
Test [14] concerns SK-OV-3.
Test [15] has as its system SNB-19.
The test system of test [16] is SNB-75.
Test [17] deals with SW-620.
In test [18] the test system is U-251.
Test [19] concerns UO-31.
Test [20] relates to HCC 2998.

Consider `CN(CCO)Cc1ncccc1O`, for which the GI50 in test [1] was > 100 µM (inactive); in test [2], 68.5 µM (inactive); in test [3], 64.3 µM (inactive); in test [4] it was > 100 µM (inactive); in test [5], > 100 µM (inactive); in test [6], 0.495 µM (active). The GI50 in [7] is > 100 µM (inactive); in [8], 25.5 µM (inactive); in test [9], > 100 µM (inactive); in [10] it was > 100 µM (inactive); in [11], > 100 µM (inactive); in [12] it was > 100 µM (inactive). For the same compound, the GI50 in test [13], in test [14], in [15], in [16], in test [17] and in test [18] was > 100 µM (inactive) in each case. Moreover, in test [19], the GI50 is > 100 µM (inactive).
For the compound `COc1cccc(OCC(=N/NC(=O)c2ccncc2)/N=C/c2ccncc2)c1`, the GI50 in test [1], in [2], in test [20], in test [3], in [4] and in [5] was > 100 µM (inactive) each time. In addition, the GI50 in test [6], in test [7], in test [8], in test [9], in test [10] and in [11] was > 100 µM (inactive) in each case. Further, the GI50 in test [12], in test [13], in test [14], in test [15], in test [17] and in [18] was > 100 µM (inactive) each time.
For the compound `CC(=O)NNc1nc(C)c(C(=O)NNC(=O)C(=O)Nc2ccc([N+](=O)[O-])cc2C#N)s1`, the GI50 in [1] is > 100 µM (inactive); in test [2] it was 32.7 µM (inactive); in [20] it was > 100 µM (inactive); in [3] it was > 100 µM (inactive); in [4], > 100 µM (inactive); in test [5], > 100 µM (inactive). Further, the GI50 in test [6] is 38.1 µM (inactive); in [7], > 100 µM (inactive); in [8], 38.5 µM (inactive); in [9] it was > 100 µM (inactive); in test [10] it was > 100 µM (inactive); in test [11], > 100 µM (inactive). The GI50 is > 100 µM (inactive) in test [12]; > 100 µM (inactive) in test [13]; > 100 µM (inactive) in test [14]; > 100 µM (inactive) in test [15]; 55.1 µM (inactive) in [17]; 52.7 µM (inactive) in test [18]. Besides, in test [19], the GI50 was > 100 µM (inactive).
For `CCOC(=O)/C=C/n1c2ccccc2c(=O)c2ccccc21`, the GI50 in test [1], in test [2], in test [20], in test [3], in test [4] and in test [5] was > 100 µM (inactive) throughout. In addition, the GI50 in test [6], in test [7], in [8], in [9], in test [11] and in [12] was > 100 µM (inactive) each time. Further, the GI50 in [13], in [15], in test [17], in [18] and in test [19] was > 100 µM (inactive) each time.
Turning to `CC1CC/C(=C\c2ccc(N(C)C)cc2)C2=C1C(c1ccc(N(C)C)cc1)NC(=S)N2` (stereo unspecified), the GI50 in [2], in test [3], in [5], in test [6], in test [7] and in test [8] was > 100 µM (inactive) in each case. For the same compound, the GI50 in test [10], in [11], in test [12], in test [13], in test [14] and in test [15] was > 100 µM (inactive) in each case. Further, the GI50 in test [16], in test [17], in test [18] and in [19] was > 100 µM (inactive) each time.
As for `O=C(/C=C/c1ccc(OCc2ccccc2)cc1)NCc1ccc(C(=O)NCc2ccccc2)cc1`, the GI50 in test [1], in test [2], in test [20], in [4], in test [5] and in [6] was > 100 µM (inactive) each time. Also, the GI50 in [7], in test [8], in [9], in test [10], in [11] and in test [12] was > 100 µM (inactive) in each case. Besides, the GI50 in [13] was > 100 µM (inactive); in test [14] it was > 100 µM (inactive); in test [15], > 100 µM (inactive); in [16], 36.6 µM (inactive); in test [17], > 100 µM (inactive); in test [18], > 100 µM (inactive). Besides, the GI50 in test [19] is > 100 µM (inactive).
As to `CN(C)C(=O)NCCN1CCCCCc2ccccc21`, the GI50 in test [1] was > 100 µM (inactive); in [2], 71.8 µM (inactive); in [20], > 100 µM (inactive); in test [3] it was 31.3 µM (inactive); in test [4], > 100 µM (inactive); in test [5], > 100 µM (inactive). Also, the GI50 in [6] was > 100 µM (inactive); in test [7] it was > 100 µM (inactive); in test [8] it was 93.1 µM (inactive); in test [9] it was > 100 µM (inactive); in [10], > 100 µM (inactive); in test [11], > 100 µM (inactive). Further, the GI50 in [12], in [13], in test [14], in test [15], in [17] and in test [18] was > 100 µM (inactive) throughout. The GI50 in test [19] is > 100 µM (inactive).
For `CCN(CC)c1cccc2c1/C(=N/O)CCCC2`, the GI50 in [1] is > 100 µM (inactive); in [2], > 100 µM (inactive); in test [3], > 100 µM (inactive); in [4], > 100 µM (inactive); in test [6] it was 46.8 µM (inactive); in test [7], > 100 µM (inactive). Further, the GI50 in [8] is 65.8 µM (inactive); in test [9], 74.5 µM (inactive); in [11], 56.2 µM (inactive); in test [13], > 100 µM (inactive); in test [14] it was > 100 µM (inactive); in test [15] it was > 100 µM (inactive). Moreover, the GI50 was 84.1 µM (inactive) in test [16], > 100 µM (inactive) in [17], > 100 µM (inactive) in test [18] and > 100 µM (inactive) in [19].
For `CCOC(=O)c1cc(Br)c(-c2cc(C)no2)[nH]1`, the GI50 in [1] is 24.9 µM (inactive); in test [3], 24.7 µM (inactive); in test [7], 10.1 µM (inactive); in test [8] it was 82 µM (inactive); in test [9] it was 21.1 µM (inactive); in test [10], 49 µM (inactive). In addition, the GI50 is 13.9 µM (inactive) in [11]; 33.8 µM (inactive) in [12]; 32.4 µM (inactive) in test [13]; 41.6 µM (inactive) in test [14]; 80.4 µM (inactive) in [15]; 23.9 µM (inactive) in [16]. In addition, the GI50 in test [17] was 30 µM (inactive); in test [18], 25.5 µM (inactive); in [19], 29.1 µM (inactive).
In the case of `O=C1C(Cl)N(c2ccccc2[N+](=O)[O-])C1c1c[nH]c2ccccc12` (stereo unspecified), the GI50 in [1], in test [2], in test [3], in test [4], in [5] and in [6] was > 100 µM (inactive) throughout. For the same compound, the GI50 is > 100 µM (inactive) in test [7]; > 100 µM (inactive) in test [8]; > 100 µM (inactive) in test [9]; 1.36 µM (inactive) in test [10]; > 100 µM (inactive) in test [11]; > 100 µM (inactive) in test [12]. Besides, the GI50 in [13] is > 100 µM (inactive); in test [14], > 100 µM (inactive); in test [15] it was > 100 µM (inactive); in [16], 27.4 µM (inactive); in test [17] it was > 100 µM (inactive); in test [18], > 100 µM (inactive). Further, the GI50 in [19] is 54.6 µM (inactive).
Take `O=C1C=CC(=O)c2c(Cl)ccc(O)c21`: the GI50 was > 81.8 µM (inactive) in test [1]; > 100 µM (inactive) in test [20]; 2.96 µM (inactive) in test [3]; > 100 µM (inactive) in test [4]; 14.6 µM (inactive) in [5]; 3.48 µM (inactive) in test [6]. Further, the GI50 was 52.7 µM (inactive) in [7]; 4.54 µM (inactive) in test [8]; > 65.9 µM (inactive) in test [9]; > 54.1 µM (inactive) in [10]; 5.66 µM (inactive) in test [11]; > 42.3 µM (inactive) in test [12]. The GI50 is 18.8 µM (inactive) in test [13]; > 100 µM (inactive) in [14]; > 100 µM (inactive) in [15]; 28.5 µM (inactive) in [16]; 11.6 µM (inactive) in [17]; > 57 µM (inactive) in test [18]. In addition, the GI50 in [19] was > 100 µM (inactive).
